# Laboratory results as given in publication PMC6268327 (2012).
# What was measured:
# [1] = test system: C-myc DNA (NHE III1 promoter fragment duplex) (DNA, duplex) GGGAGGGTGGGGAAGG/CCTTCCCCACCCTCCC; assay: fluorescence quenching titration (double-log plot); details: Tris-HCl buffer 100 mM (no metal cations given); 100 mM Tris-HCl, pH 7.4; 298 K; 1 μM compound; double-log fit, apparent
# [2] = test system: p53 DNA (P1 promoter fragment duplex) (DNA, duplex) CCTCCTCCCCAACTCC/GGAGTTGGGGAGGAGG; assay: fluorescence quenching titration (double-log plot); details: Tris-HCl buffer 100 mM (no metal cations given); 100 mM Tris-HCl, pH 7.4; 298 K; 1 μM compound; double-log fit, apparent
SMILES,Kb [1],Kb [2]
OCCCCc1ccc2ccc3cccc4ccc1c2c34,1390 L/mol,2040 L/mol
Oc1ccc2ccc3cccc4ccc1c2c34,404000 L/mol,1.16e+06 L/mol
